Assays:
Test in all cases: Herbicidal effect test by soil treatment
Format in all cases: in vivo
[1] = test system: annual sedge (Cyperus microiria); settings: three weeks after spraying
Source text: (§1) In a plastic box of 15 cm length, 22 cm width and 6 cm depth, there was placed a sterilized dilvial soil, and seeds of barnyardgrass (Echinochloa crusgalli), large crabgrass (Digitaria adscendens), annual sedge (Cyperus microiria), black nightshade (Solanum nigrum L.), hairly galinosoga (Galinsoga ciliat), rorippa ssp. (Rorippa atrovirens), rice (Oryza sativa), corn (Zea mays), wheat (Triticum aestivum), soybean (Glysine max) and cotton (Gossypium herbaceum) were sown mixedly. After covering soil to about 1 cm over the seeds, herbicides were sprayed evenly on the soil surface to predetermined proportions of the active ingredient In spraying, the wettable powder, emulsifiable concentrate, dry flowable or flowable in the above formulation examples were diluted with water and sprayed over the entire surface by means of a small sprayer. Three weeks after spraying, the herbicidal effect on crop plants including rice, corn, wheat, soybean, cotton and various kinds of weeds were examined according to the judgement criteria shown below. Judgement criteria
(§2) The above growth control rates are determined by measuring the top fresh weights of the treated plants and those of the non-treated plants, and culculated from the following formula: [formula]

[2] = test system: barnyardgrass (Echinochloa crusgalli); settings: three weeks after spraying
Source text: as §1, §2

[3] = test system: black nightshade (Solanum nigrum L.); settings: three weeks after spraying
Source text: as §1, §2

corn (Zea mays) = settings: crop plant, three weeks after spraying
Source text: as §1, §2

[4] = test system: cotton (Gossypium herbaceum); settings: crop plant, three weeks after spraying
Source text: as §1, §2

[5] = test system: hairly galinosoga (Galinsoga ciliat); settings: three weeks after spraying
Source text: as §1, §2

[6] = test system: large crabgrass (Digitaria adscendens); settings: three weeks after spraying
Source text: as §1, §2

rice (Oryza sativa) = settings: crop plant, three weeks after spraying
Source text: as §1, §2

[7] = test system: rorippa ssp. (Rorippa atrovirens); settings: three weeks after spraying
Source text: as §1, §2

soybean (Glysine max) = settings: crop plant, three weeks after spraying
Source text: as §1, §2

[8] = test system: wheat (Triticum aestivum); settings: crop plant, three weeks after spraying
Source text: as §1, §2

Structure (SMILES)	herbicidal effect, K (Cyperus microiria) ([1]; application amount 0.4 g/a)	herbicidal effect, K (Cyperus microiria) ([1]; application amount 0.8 g/a)	herbicidal effect, K (Cyperus microiria) ([1]; application amount 1.6 g/a)	herbicidal effect, H (Solanum nigrum L.) ([3]; application amount 0.4 g/a)	herbicidal effect, H (Solanum nigrum L.) ([3]; application amount 0.8 g/a)	herbicidal effect, H (Solanum nigrum L.) ([3]; application amount 1.6 g/a)	herbicidal effect, T (Zea mays) (corn (Zea mays); application amount 0.4 g/a)	herbicidal effect, T (Zea mays) (corn (Zea mays); application amount 0.8 g/a)	herbicidal effect, T (Zea mays) (corn (Zea mays); application amount 1.6 g/a)	herbicidal effect, C (Gossypium herbaceum) ([4]; application amount 0.4 g/a)	herbicidal effect, C (Gossypium herbaceum) ([4]; application amount 0.8 g/a)	herbicidal effect, C (Gossypium herbaceum) ([4]; application amount 1.6 g/a)	herbicidal effect, D (Galinsoga ciliat) ([5]; application amount 0.4 g/a)	herbicidal effect, D (Galinsoga ciliat) ([5]; application amount 0.8 g/a)	herbicidal effect, D (Galinsoga ciliat) ([5]; application amount 1.6 g/a)	herbicidal effect, M (Digitaria adscendens) ([6]; application amount 0.4 g/a)	herbicidal effect, R (Oryza sativa) (rice (Oryza sativa); application amount 1.6 g/a)	herbicidal effect, I (Rorippa indica) ([7]; application amount 1.6 g/a)	herbicidal effect, S (Glysine max) (soybean (Glysine max); application amount 1.6 g/a)	herbicidal effect, W (Triticum vulgare) ([8]; application amount 1.6 g/a)	further results
C#CCN1C(=O)COc2cc(F)c(N3C(=O)CC(C)CC3=O)cc21 [1-23]	5 (Growth control,rates of more than 90% (almost completely withered))	5 (Growth control,rates of more than 90% (almost completely withered))	5 (Growth control,rates of more than 90% (almost completely withered))	5 (Growth control,rates of more than 90% (almost completely withered))	5 (Growth control,rates of more than 90% (almost completely withered))	5 (Growth control,rates of more than 90% (almost completely withered))	4 (Growth control rates of 70 to 90%)	5 (Growth control,rates of more than 90% (almost completely withered))	5 (Growth control,rates of more than 90% (almost completely withered))	2 (Growth control rates of 20 to 40%)	3 (Growth control rates of 40 to 70%)	4 (Growth control rates of 70 to 90%)	5 (Growth control,rates of more than 90% (almost completely withered))	5 (Growth control,rates of more than 90% (almost completely withered))	5 (Growth control,rates of more than 90% (almost completely withered))	5 (Growth control,rates of more than 90% (almost completely withered))	5 (Growth control,rates of more than 90% (almost completely withered))	5 (Growth control,rates of more than 90% (almost completely withered))	2 (Growth control rates of 20 to 40%)	5 (Growth control,rates of more than 90% (almost completely withered))	herbicidal effect, N (Echinochloa crusgalli) ([2]; application amount 0.4 g/a): 5 (Growth control,rates of more than 90% (almost completely withered)); herbicidal effect, N (Echinochloa crusgalli) ([2]; application amount 0.8 g/a): 5 (Growth control,rates of more than 90% (almost completely withered)); herbicidal effect, N (Echinochloa crusgalli) ([2]; application amount 1.6 g/a): 5 (Growth control,rates of more than 90% (almost completely withered)); herbicidal effect, M (Digitaria adscendens) ([6]; application amount 0.8 g/a): 5 (Growth control,rates of more than 90% (almost completely withered)); herbicidal effect, M (Digitaria adscendens) ([6]; application amount 1.6 g/a): 5 (Growth control,rates of more than 90% (almost completely withered)); herbicidal effect, R (Oryza sativa) (rice (Oryza sativa); application amount 0.4 g/a): 2 (Growth control rates of 20 to 40%); herbicidal effect, R (Oryza sativa) (rice (Oryza sativa); application amount 0.8 g/a): 3 (Growth control rates of 40 to 70%); herbicidal effect, I (Rorippa indica) ([7]; application amount 0.4 g/a): 5 (Growth control,rates of more than 90% (almost completely withered)); herbicidal effect, I (Rorippa indica) ([7]; application amount 0.8 g/a): 5 (Growth control,rates of more than 90% (almost completely withered)); herbicidal effect, S (Glysine max) (soybean (Glysine max); application amount 0.4 g/a): 0 (Growth control rates of less than 5% (substantially no effect)); herbicidal effect, S (Glysine max) (soybean (Glysine max); application amount 0.8 g/a): 1 (Growth control rates of 5 to 20%); herbicidal effect, W (Triticum vulgare) ([8]; application amount 0.4 g/a): 4 (Growth control rates of 70 to 90%); herbicidal effect, W (Triticum vulgare) ([8]; application amount 0.8 g/a): 5 (Growth control,rates of more than 90% (almost completely withered))
C#CCN1C(=O)COc2ccc(N3C(=O)CC(C(F)(F)F)CC3=O)cc21 [1-24]	5 (Growth control,rates of more than 90% (almost completely withered))	5 (Growth control,rates of more than 90% (almost completely withered))	5 (Growth control,rates of more than 90% (almost completely withered))	5 (Growth control,rates of more than 90% (almost completely withered))	5 (Growth control,rates of more than 90% (almost completely withered))	5 (Growth control,rates of more than 90% (almost completely withered))	0 (Growth control rates of less than 5% (substantially no effect))	2 (Growth control rates of 20 to 40%)	4 (Growth control rates of 70 to 90%)	0 (Growth control rates of less than 5% (substantially no effect))	1 (Growth control rates of 5 to 20%)	3 (Growth control rates of 40 to 70%)	5 (Growth control,rates of more than 90% (almost completely withered))	5 (Growth control,rates of more than 90% (almost completely withered))	5 (Growth control,rates of more than 90% (almost completely withered))	5 (Growth control,rates of more than 90% (almost completely withered))	5 (Growth control,rates of more than 90% (almost completely withered))	5 (Growth control,rates of more than 90% (almost completely withered))	1 (Growth control rates of 5 to 20%)	4 (Growth control rates of 70 to 90%)	herbicidal effect, M (Digitaria adscendens) ([6]; application amount 0.8 g/a): 5 (Growth control,rates of more than 90% (almost completely withered)); herbicidal effect, M (Digitaria adscendens) ([6]; application amount 1.6 g/a): 5 (Growth control,rates of more than 90% (almost completely withered)); herbicidal effect, R (Oryza sativa) (rice (Oryza sativa); application amount 0.4 g/a): 1 (Growth control rates of 5 to 20%); herbicidal effect, R (Oryza sativa) (rice (Oryza sativa); application amount 0.8 g/a): 4 (Growth control rates of 70 to 90%); herbicidal effect, I (Rorippa indica) ([7]; application amount 0.4 g/a): 5 (Growth control,rates of more than 90% (almost completely withered)); herbicidal effect, I (Rorippa indica) ([7]; application amount 0.8 g/a): 5 (Growth control,rates of more than 90% (almost completely withered)); herbicidal effect, S (Glysine max) (soybean (Glysine max); application amount 0.4 g/a): 0 (Growth control rates of less than 5% (substantially no effect)); herbicidal effect, S (Glysine max) (soybean (Glysine max); application amount 0.8 g/a): 0 (Growth control rates of less than 5% (substantially no effect)); herbicidal effect, W (Triticum vulgare) ([8]; application amount 0.4 g/a): 0 (Growth control rates of less than 5% (substantially no effect)); herbicidal effect, W (Triticum vulgare) ([8]; application amount 0.8 g/a): 1 (Growth control rates of 5 to 20%)
CCOC(=O)c1cc(N2C(=O)CC(c3ccccc3)CC2=O)c(F)cc1Cl [1-29]			5 (Growth control,rates of more than 90% (almost completely withered))			5 (Growth control,rates of more than 90% (almost completely withered))			0 (Growth control rates of less than 5% (substantially no effect))			0 (Growth control rates of less than 5% (substantially no effect))			5 (Growth control,rates of more than 90% (almost completely withered))		0 (Growth control rates of less than 5% (substantially no effect))	5 (Growth control,rates of more than 90% (almost completely withered))	0 (Growth control rates of less than 5% (substantially no effect))	0 (Growth control rates of less than 5% (substantially no effect))	herbicidal effect, K (Cyperus microiria) ([1]; application amount 3.2 g/a): 5 (Growth control,rates of more than 90% (almost completely withered)); herbicidal effect, K (Cyperus microiria) ([1]; application amount 6.3 g/a): 5 (Growth control,rates of more than 90% (almost completely withered)); herbicidal effect, H (Solanum nigrum L.) ([3]; application amount 3.2 g/a): 5 (Growth control,rates of more than 90% (almost completely withered)); herbicidal effect, H (Solanum nigrum L.) ([3]; application amount 6.3 g/a): 5 (Growth control,rates of more than 90% (almost completely withered)); herbicidal effect, T (Zea mays) (corn (Zea mays); application amount 3.2 g/a): 0 (Growth control rates of less than 5% (substantially no effect)); herbicidal effect, T (Zea mays) (corn (Zea mays); application amount 6.3 g/a): 0 (Growth control rates of less than 5% (substantially no effect)); herbicidal effect, C (Gossypium herbaceum) ([4]; application amount 3.2 g/a): 0 (Growth control rates of less than 5% (substantially no effect)); herbicidal effect, C (Gossypium herbaceum) ([4]; application amount 6.3 g/a): 0 (Growth control rates of less than 5% (substantially no effect)); herbicidal effect, D (Galinsoga ciliat) ([5]; application amount 3.2 g/a): 5 (Growth control,rates of more than 90% (almost completely withered)); herbicidal effect, D (Galinsoga ciliat) ([5]; application amount 6.3 g/a): 5 (Growth control,rates of more than 90% (almost completely withered)); herbicidal effect, R (Oryza sativa) (rice (Oryza sativa); application amount 3.2 g/a): 0 (Growth control rates of less than 5% (substantially no effect)); herbicidal effect, R (Oryza sativa) (rice (Oryza sativa); application amount 6.3 g/a): 0 (Growth control rates of less than 5% (substantially no effect)); herbicidal effect, I (Rorippa indica) ([7]; application amount 3.2 g/a): 5 (Growth control,rates of more than 90% (almost completely withered)); herbicidal effect, I (Rorippa indica) ([7]; application amount 6.3 g/a): 5 (Growth control,rates of more than 90% (almost completely withered)); herbicidal effect, S (Glysine max) (soybean (Glysine max); application amount 3.2 g/a): 0 (Growth control rates of less than 5% (substantially no effect)); herbicidal effect, S (Glysine max) (soybean (Glysine max); application amount 6.3 g/a): 0 (Growth control rates of less than 5% (substantially no effect)); herbicidal effect, W (Triticum vulgare) ([8]; application amount 3.2 g/a): 0 (Growth control rates of less than 5% (substantially no effect)); herbicidal effect, W (Triticum vulgare) ([8]; application amount 6.3 g/a): 0 (Growth control rates of less than 5% (substantially no effect))
